Experimental data taken from paper PMC9491098, “Discovery of novel drug-like antitubercular hits targeting the MEP pathway enzyme DXPS by strategic application of ligand-based virtual screening” (Chemical Science, 2022).
Where two headings read alike, the source gives them in different places.

Legend:
MtDXPS [1] = molecular target: T1, MtDXPS (Mycobacterium tuberculosis, UniProt P9WNS3); assay: biochemical
DrDXPS (WT) = DrDXPS (WT) (Deinococcus radiodurans, UniProt Q9RUB5); conditions: pseudo-inhibitors; cited from earlier work
Chain of DrDXPS (WT) (Q9RUB5 whole entry, looked up): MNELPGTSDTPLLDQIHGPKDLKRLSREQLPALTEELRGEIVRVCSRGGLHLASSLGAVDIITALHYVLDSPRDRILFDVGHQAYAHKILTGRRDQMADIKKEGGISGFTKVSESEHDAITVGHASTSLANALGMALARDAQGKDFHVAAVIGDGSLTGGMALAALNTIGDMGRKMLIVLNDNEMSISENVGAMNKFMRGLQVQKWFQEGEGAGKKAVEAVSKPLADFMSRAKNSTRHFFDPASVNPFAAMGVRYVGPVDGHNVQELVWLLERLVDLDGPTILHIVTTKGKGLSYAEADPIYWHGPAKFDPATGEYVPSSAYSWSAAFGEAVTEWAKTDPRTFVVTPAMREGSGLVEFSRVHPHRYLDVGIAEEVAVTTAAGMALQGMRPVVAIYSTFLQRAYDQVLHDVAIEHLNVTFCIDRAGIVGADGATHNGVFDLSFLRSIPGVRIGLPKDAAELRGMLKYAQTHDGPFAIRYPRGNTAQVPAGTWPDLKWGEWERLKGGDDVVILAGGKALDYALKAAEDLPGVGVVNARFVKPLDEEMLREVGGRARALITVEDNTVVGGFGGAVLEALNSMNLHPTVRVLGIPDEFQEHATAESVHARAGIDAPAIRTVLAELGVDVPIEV

MtDXPS [2] = molecular target: T1, MtDXPS; assay: biochemical; conditions: MtDXPS, read-out: K i*
[3] = Table S1, first round of LBVS, MtDXPS, read-out: IC50
[4] = Table S2, second round of LBVS, MtDXPS, read-out: IC50
[5] = Table 1C, aminothiazole derivatives
[6] = Table S3, third round of LBVS, MtDXPS, read-out: IC50

T1 sequence (P9WNS3 whole entry, looked up): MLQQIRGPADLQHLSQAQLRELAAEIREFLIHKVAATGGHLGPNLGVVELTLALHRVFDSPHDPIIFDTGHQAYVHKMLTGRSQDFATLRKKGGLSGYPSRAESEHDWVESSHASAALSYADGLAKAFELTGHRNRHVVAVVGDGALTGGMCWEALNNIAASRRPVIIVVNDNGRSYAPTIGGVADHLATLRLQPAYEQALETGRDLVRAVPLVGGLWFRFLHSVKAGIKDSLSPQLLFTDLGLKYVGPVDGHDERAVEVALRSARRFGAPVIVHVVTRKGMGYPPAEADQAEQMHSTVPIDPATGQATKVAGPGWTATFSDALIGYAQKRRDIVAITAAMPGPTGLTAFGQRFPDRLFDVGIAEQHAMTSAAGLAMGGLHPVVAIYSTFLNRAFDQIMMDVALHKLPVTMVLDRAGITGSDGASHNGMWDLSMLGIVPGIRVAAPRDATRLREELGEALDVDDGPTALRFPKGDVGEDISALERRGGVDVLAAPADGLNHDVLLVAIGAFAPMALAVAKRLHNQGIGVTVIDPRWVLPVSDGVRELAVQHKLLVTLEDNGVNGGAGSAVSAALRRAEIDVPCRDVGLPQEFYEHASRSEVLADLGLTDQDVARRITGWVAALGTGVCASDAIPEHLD

Cc1ccccc1-n1c(S)nnc1-c1csc2c1CCCC2 [Compound 41]
IC50 (MtDXPS [1]; [3]): > 8 µM

COCC(=O)N(C)Cc1cn(C)nc1C [Compound 66]
IC50 (MtDXPS [1]; [3]): > 1000 µM

CC(C)c1ccc(C(C)N2Cc3nc(N)ncc3C2=O)cc1 (stereo not shown) [Compound 4]
IC50 (MtDXPS [1]; IC50 against MtDXPS): 1020 ± 88 µM

CCCCNC(=O)N(C)Cc1c(C)nn(CC)c1C [Compound 69]
IC50 (MtDXPS [1]; [3]): > 1000 µM

Cc1cc(C(=O)O)c(-c2ccccc2)o1 [Compound 55]
IC50 (MtDXPS [1]; [3]): > 1000 µM

CC(C)(C)c1ccc(Cn2c(CCCO)nc3ccccc32)cc1 [Compound 103]
IC50 (MtDXPS [1]; [4]): > 90 µM

CN(C)c1ccc(C2NC(N)=Nc3nc4ccccc4n32)cc1 (stereo not shown) [Compound 125]
IC50 (MtDXPS [1]; [4]): > 200 µM

OCc1cc(CO)n(CCc2c[nH]cn2)n1 [Compound 2, reference compound]
IC50 (MtDXPS [1]): > 2000 µM
inhibition of DrDXPS (DrDXPS (WT)): weak inhibitors

Cc1ccc(/C(=N\O)c2ccc(O)cc2O)cc1 [Compound 110]
IC50 (MtDXPS [1]; [4]): > 1000 µM

Cc1n[nH]c(O)c1C1OC(=O)c2ccccc21 (stereo not shown) [Compound 39]
IC50 (MtDXPS [1]; [3]): > 1000 µM

CC(C)(C)C(O)/C(=N/O)n1cncn1 (stereo not shown) [Compound 120]
IC50 (MtDXPS [1]; [4]): > 200 µM

Cc1nc(N)sc1-c1csc(Nc2ccc(Cl)cn2)n1 [Compound 30]
Ki (MtDXPS [2]; [5]): 0.3 ± 0.1 µM

O/N=C(/c1ccccc1)c1ccccn1 [Compound 117]
IC50 (MtDXPS [1]; [4]): > 500 µM

Cc1nn(CCc2nnc(S)n2Cc2ccccc2)c(C)c1Br [Compound 42]
IC50 (MtDXPS [1]; [3]): > 30 µM

CN1NC(c2ccc(O)cc2)C2C(=O)NC(=O)C21 (stereo not shown) [Compound 85]
IC50 (MtDXPS [1]; [3]): > 120 µM

S=c1[nH]ccn1Cc1ccccc1 [Compound 54]
IC50 (MtDXPS [1]; [3]): > 500 µM

Nn1c(S)nnc1Cn1cnc2ccccc21 [Compound 51]
IC50 (MtDXPS [1]; [3]): > 1000 µM

N=C1NC(=O)C(CC(N)=O)S1 (stereo not shown) [Compound 57]
IC50 (MtDXPS [1]; [3]): > 1000 µM

Cc1nc(N)sc1-c1csc(Nc2ccccc2)n1 [Compound 26]
IC50 (MtDXPS [1]; [6]): > 120 µM
Ki (MtDXPS [2]; [5]): > 10 µM

O/N=C/c1cccn1-c1ccc(Br)cc1 [Compound 121]
IC50 (MtDXPS [1]; [4]): > 200 µM

Cc1ccc(C2NC(N)=Nc3nc4ccccc4n32)o1 (stereo not shown) [Compound 49]
IC50 (MtDXPS [1]; [3]): > 1000 µM

Cc1nc(C)c(-c2csc(Nc3ccc(Cl)cn3)n2)s1 [Compound 31]
IC50 (MtDXPS [1]; [6]): > 500 µM
Ki (MtDXPS [2]; [5]): > 10 µM

O=C(O)CCc1ccc(-c2ccc(F)cc2)n1Cc1ccco1 [Compound 48]
IC50 (MtDXPS [1]; [3]): > 500 µM

CNc1ncc2c(n1)CN(CCc1ccccc1F)C2=O [Compound 106]
IC50 (MtDXPS [1]; [4]): > 340 µM

COc1ccc(/C(Cc2ccc(Cl)cc2)=N/O)c(O)c1 [Compound 24]
Ki (MtDXPS [2]; Table 1B, oxime derivatives): 0.5 ± 0.1 µM

CN(C)Cc1ccc(O)cc1 [Compound 58]
IC50 (MtDXPS [1]; [3]): > 1000 µM

Cc1cc(C)n(CCc2nnco2)n1 [Compound 74]
IC50 (MtDXPS [1]; [3]): > 1000 µM

Oc1ccc(-c2csc(Nc3cccc(C(F)(F)F)c3)n2)c(O)c1 [Compound 29]
Ki (MtDXPS [2]; [5]): 0.5 ± 0.04 µM

Cc1cc(C)n(CCc2nnc(S)n2-c2ccc(Br)cc2)n1 [Compound 72]
IC50 (MtDXPS [1]; [3]): > 120 µM

COc1ccc(Cc2nc3ccccc3n2CC(O)CO)cc1 (stereo not shown) [Compound 105]
IC50 (MtDXPS [1]; [4]): > 2000 µM

CN1C(=O)CCC(C(=O)O)C1c1ccccc1 (stereo not shown) [Compound 68]
IC50 (MtDXPS [1]; [3]): > 1000 µM

Cc1cccc(C(=O)N2CCC(C(N)=O)CC2)c1 [Compound 44]
IC50 (MtDXPS [1]; IC50 (μM)): > 1000 µM

CC(C)(CO)NCc1cccs1 [Compound 64]
IC50 (MtDXPS [1]; [3]): > 1000 µM

CCn1nccc1CN(C)C(=O)C1CCC1 [Compound 67]
IC50 (MtDXPS [1]; [3]): > 1000 µM

COc1ccc(C/C(=N\O)c2ccc(O)cc2O)cc1 [Compound 22]
Ki (MtDXPS [2]; Table 1B, oxime derivatives): > 10 µM

O=Cc1ccc(O[C@@H]2O[C@H](CO)[C@@H](O)[C@H](O)[C@H]2O)cc1 [Compound 82]
IC50 (MtDXPS [1]): > 1000 µM

CCCCC(NS(=O)(=O)c1cc2c3c(c1)c(C)cc(=O)n3CC2)C(=O)O (stereo not shown) [Compound 90]
IC50 (MtDXPS [1]; [3]): > 60 µM

CCCOc1ccc(C2N=C(N)Nc3nc4ccccc4n32)cc1 (stereo not shown) [Compound 122]
IC50 (MtDXPS [1]; [4]): > 50 µM

COc1ccc2[nH]cc(C3NC(N)=Nc4nc5ccccc5n43)c2c1 (stereo not shown) [Compound 46]
IC50 (MtDXPS [1]; [3]): > 500 µM

Cc1c(Cl)cccc1Nc1nc(-c2cccnc2)cs1 [Compound 135]
IC50 (MtDXPS [1]; [6]): > 200 µM

Cc1nc(NC(=O)c2ccccc2)sc1-c1csc(Nc2ccc(C(F)(F)F)cc2)n1 [Compound 133]
IC50 (MtDXPS [1]; [6]): > 120 µM

CCC1CCC2(CC1)N=C(O)N(CC(=O)c1ccc3c(c1)CCC3)C2=O (stereo not shown) [Compound 71]
IC50 (MtDXPS [1]; [3]): > 60 µM

OCc1cn(Cc2cccc(Cl)c2)c2ccccc12 [Compound 15]
Ki (MtDXPS [2]; Table 1A, indole derivatives): > 10 µM

O=C(O)Cc1ccc(-n2cnnn2)cc1 [Compound 53]
inhibition at 1000 μM (MtDXPS [1]): ~ 25 % inhibition

NC1=NC(c2ccc(O)c(O)c2)n2c(nc3ccccc32)N1 (stereo not shown) [Compound 126]
IC50 (MtDXPS [1]; [4]): > 160 µM

COc1cccc2c(CO)cn(Cc3ccc(Cl)c(Cl)c3)c12 [Compound 19]
Ki (MtDXPS [2]; Table 1A, indole derivatives): 1.4 ± 0.3 µM

O=C(Nc1ccc(O)cc1C(=O)O)c1ccco1 [Compound 81]
IC50 (MtDXPS [1]; [3]): > 60 µM

O=C1/C(=N\O)c2ccc(Cl)cc2N1Cc1ccccc1 [Compound 112]
IC50 (MtDXPS [1]; [4]): > 900 µM

Oc1ncnc(O)c1C(c1cccs1)c1c(O)ncnc1O [Compound 43]
IC50 (MtDXPS [1]; [3]): > 500 µM
